Measurements from patent US8299048B2, “Hexahydrocyclopentyl[f]indazole sulfonamides and derivatives thereof as selective glucocorticoid receptor modulators” (Merck Sharp & Dohme Corp., priority 2008, dated 2012).

Legend:
human GR [1] = target: T1, human GR (Homo sapiens, UniProt P04150); experiment: Trans-Activation Modulation of Glucocorticoid Receptor (GRAMMER), MMTV-LUC reporter, agonist mode; format: cell-based; design: endogenous in cells; conditions: for Emax: A549, A549 cells, maximum activity, read-out: Transactivation A549 Cells GRAMMER Emax; for EC50: A549 cells, inflection point, read-out: Transactivation A549 Cells GRAMMER IP
T1 sequence (P04150 1-777): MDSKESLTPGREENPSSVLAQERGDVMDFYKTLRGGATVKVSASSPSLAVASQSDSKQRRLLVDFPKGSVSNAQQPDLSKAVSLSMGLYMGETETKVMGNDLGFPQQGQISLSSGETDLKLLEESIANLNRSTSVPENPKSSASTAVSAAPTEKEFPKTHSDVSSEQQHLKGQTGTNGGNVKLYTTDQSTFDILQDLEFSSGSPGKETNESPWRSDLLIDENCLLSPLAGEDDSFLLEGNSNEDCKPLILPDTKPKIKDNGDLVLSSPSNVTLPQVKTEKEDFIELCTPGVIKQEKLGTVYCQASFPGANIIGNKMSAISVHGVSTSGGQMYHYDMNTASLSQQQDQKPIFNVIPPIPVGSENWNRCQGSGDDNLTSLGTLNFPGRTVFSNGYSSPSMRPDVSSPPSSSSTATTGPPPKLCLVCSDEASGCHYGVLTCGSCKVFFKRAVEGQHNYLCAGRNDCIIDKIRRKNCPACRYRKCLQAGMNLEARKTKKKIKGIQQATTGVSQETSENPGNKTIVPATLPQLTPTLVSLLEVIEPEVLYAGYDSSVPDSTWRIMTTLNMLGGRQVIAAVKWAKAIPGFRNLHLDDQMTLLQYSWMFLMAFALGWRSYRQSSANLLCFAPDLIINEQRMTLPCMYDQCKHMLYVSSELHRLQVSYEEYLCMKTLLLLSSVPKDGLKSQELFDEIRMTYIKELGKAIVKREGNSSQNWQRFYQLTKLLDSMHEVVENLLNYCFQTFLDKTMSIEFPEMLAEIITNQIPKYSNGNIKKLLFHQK
Outline: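 Readout is luciferase from a modified MMTV LTR promoter after 24 h compound exposure alongside 10 nM dexamethasone (100% activity reference), DMSO ≤1%.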

human GR [2] = target: T1, human GR; experiment: Transrepression Assay (GITAR), TNFα-β-lactamase reporter in U937 cells; format: cell-based; design: U937 cells contain an endogenous glucocorticoid receptor (GR); endogenous in cells; host or cells: U937 cells stably transfected with the TNF-alpha promoter/beta-lactamase reporter; conditions: for GITAR > GRAMM % SEP: GITAR Emax minus GRAMMER Emax; for EC50: U937 cells, inflection point, read-out: Transrepression U937 Cells GITAR IP
Outline: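 U937 cells stably carrying a TNF-α promoter–β-lactamase reporter, with endogenous GR, are preincubated with compound 30–45 min at 37 °C, then stimulated with PMA (5 ng/ml final) and LPS (100 ng/ml final) overnight (~18 hr). β-Lactamase is read with CCF2-AM substrate; repression by 100 nM dexamethasone defines 100%.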

[3] = U-937, U937 cells, maximum activity, read-out: Transrepression U937 Cells GITAR Emax
[4] = U-937, activity repressed by 100 nM dexamethasone alone set as 100%, read-out: maximal activity in the transrepression (GITAR) assay

Row | Structure (SMILES) | Emax (human GR [1]) | EC50 (human GR [1]) | GITAR > GRAMM % SEP (human GR [2]) | EC50 (human GR [2]) | Emax (human GR [2]; [3]) | Emax (human GR [2]; [4])
1 | CC(C)(O)CN(C[C@H]1CCC2=Cc3c(cnn3-c3ccc(F)cc3)C[C@@]21C)S(=O)(=O)c1ccccc1F [Example 199, 2-fluoro-N-{[(4αR,5S)-1-(4-fluorophenyl)-4α-methyl-1,4,4α,5,6,7-hexahydrocyclopenta[f]indazol-5-yl]methyl}-N-(2-hydroxy-2-methylpropyl)benzenesulfonamide] | 58.6% | 96.8 nM | 22.2% | 506 nM | 80.8% | > 5%
2 | C[C@]12Cc3cnn(-c4ccc(F)cc4)c3C=C1CC[C@@H]2CN(CC1CC1)S(=O)(=O)/C=C/c1ccccc1 [Example 13, (E)-N-(cyclopropylmethyl)-N-{[(4αR,5S)-1-(4-fluorophenyl)-4α-methyl-1,4,4α,5,6,7-hexahydrocyclopenta[f]indazol-5-yl]methyl}-2-phenylethylenesulfonamide] | 8.3% | 82.9 nM | 7.8% | 305 nM | 16.1% | > 5%
3 | C[C@]12Cc3cnn(-c4ccc(F)cc4)c3C=C1CC[C@@H]2CN(CCO)S(=O)(=O)Cc1ccccc1C(N)=O [Example 198, 2-({[{[(4αR,5S)-1-(4-fluorophenyl)-4α-methyl-1,4,4α,5,6,7-hexahydrocyclopenta[f]indazol-5-yl]methyl}(2-hydroxyethyl)amino]sulfonyl}methyl)benzamide] | 8.2% | 1230 nM | 7.3% | 1150 nM | 15.5% | > 5%

Continued by falling EC50 (human GR [1]), values first:

Row | Emax (human GR [1]) | EC50 (human GR [1]) | GITAR > GRAMM % SEP (human GR [2]) | EC50 (human GR [2]) | Emax (human GR [2]; [3]) | Emax (human GR [2]; [4]) | Structure (SMILES)
4 | 47.7% | 549 nM | 35.7% | 337 nM | 83.4% | > 5% | C[C@]12Cc3cnn(-c4ccc(F)cc4)c3C=C1CC[C@@H]2CN(CC#N)S(=O)(=O)c1ccccc1C#N [Example 55]
5 | 35.8% | 357 nM | 35.6% | 392 nM | 71.5% | > 5% | COC(=O)c1ccccc1S(=O)(=O)N(C[C@H]1CCC2=Cc3c(cnn3-c3ccc(F)cc3)C[C@@]21C)C[C@H](C)O [Example 187, methyl 2-({{[(4αR,5S)-1-(4-fluorophenyl)-4α-methyl-1,4,4α,5,6,7-hexahydrocyclopenta[f]indazol-5-yl]methyl}[(2S)-2-hydroxypropyl]amino}sulfonyl)benzoate]
6 | 3.2% | 82.8 nM | 16.6% | 35.5 nM | 19.8% | > 5% | C[C@]12Cc3cnn(-c4ccc(F)cc4)c3C=C1CC[C@@H]2CN(CC#N)S(=O)(=O)c1cccc2ccccc12 [Example 40, N-(cyanomethyl)-N-{[(4αR,5S)-1-(4-fluorophenyl)-4α-methyl-1,4,4α,5,6,7-hexahydrocyclopenta[f]indazol-5-yl]methyl}naphthalene-1-sulfonamide]
